The text below walks through data of patent publication US6613797B2, “Xanthone analogs for treating infectious diseases and complexation of heme and porphyrins” (Interlab, Inc., priority 1999, dated 2003).

Converted amounts (≈) assume the structure as drawn. Where two headings read alike, the source gives them in different places. Where only a bound is given, the exact number is not on record here.

One experiment deals with Candida albicans. As to the kind of experiment: anti-Candida activity, MIC by visual inspection. As to conditions: conversion of the MIC, read-out: IC50 corresponding to the MIC against Candida albicans. Type of experiment: cell-based. On the procedure:
The minimum inhibitory concentration (MIC) of formula X1 compounds against a clinical isolate of Candida albicans was determined using the following method. […] The determination of this concentration is made by visual inspection; there is no visible growth in a tube containing the MIC of the formula X1 compound whereas visible growth is present in tubes containing sub-MIC concentrations of the compound.
Candida albicans was grown to midlog-phase in Luria-Bertani broth (10 grams Bacto-tryptone, 5 grams Bacto-yeast extract and 10 grams NaCl per liter) and then inoculated into sterile test tubes containing LB broth to an initial density of 10^3/ml. The formula X1 compound to be tested is dissolved in dimethylsulfoxide (DMSO) at a concentration of 1 mM and added to each tube at serial dilutions (1 μM, 10 μM, 25 μM, 50 μM, 100 μM and 0 μM). The tubes are incubated at 35° C. for 15-18 hours and then visually inspected.

The subject of experiment [1] is Plasmodium falciparum D6 strain. Kind of experiment: in vitro anti-malarial activity, [3H]-ethanolamine incorporation method. Type of experiment: cell-based. As to conditions: Plasmodium falciparum, D6. As to the method: Cultures were maintained at 37° C. in a gas mixture of 5% oxygen, 5% CO2, and 90% nitrogen.
[^3H]-ethanolamine was obtained from American Radiolabeled Chemicals, Inc., St. Louis, Mo. Experiments were conducted in 96 well plates in a total volume of 200 μl at a final red blood cell concentration of 2% (v/v). An initial parasitemia of 0.2 to 0.5% was attained by addition of normal uninfected red cells. Radiolabeled ethanolamine was added after 48 hours of incubation and the experiment was terminated after 72 hours by collecting the cells onto glass fiber filters with an automated multiwell harvester.
Stock solutions of the various Formula X1 compounds were dissolved in DMSO at a concentration of 1 mM and diluted in complete medium (including 10% human serum) to provide 10X stock concentrations in the range of 1 to 10,000 nM.

For experiment [2], the system named is intracellular amastigotes of Leishmania mexicana M379. Kind of experiment: intracellular amastigote assay in infected murine macrophages. Type of experiment: cell-based. As to conditions: Leishmania mexicana, Macrophage, read-out: IC50, anti-leishmanial activity. As to the method:
Bone-marrow-derived macrophages (BALB/c) were cultured with L-cell-conditioned medium for 5-7 days at 35° C. After this period of incubation, mature macrophages were transferred to Labtek 4-chamber slides containing DMEM (Dulbecco's Modified Eagle's Medium) and 10% fetal calf serum. 50,000 cells were seeded in each chamber and allowed to attach overnight at 37° C. in a humidified incubator flushed with 5% CO2. On the next day the macrophages were infected at an MOI (Multiplicity of Infection) of 10:1 with stationary promastigotes of L. mexicana. After twenty-four hours, the medium was removed and fresh medium was added containing various drug concentrations (0-5 μM). Following incubation for an additional forty-eight hours, one set of slides were fixed in methanol, dried, and stained with Giemsa stain. Fresh medium and drug were added to a parallel set of chamber slides and incubated for another 48 hours before staining. […] Microscopic inspection permitted determination of % of infected macrophages and the number of amastigotes per 100 macrophages. The IC50 value is that concentration of drug that reduces the amastigote number by 50% relative to drug-free controls. Results also were obtained in parallel fashion with macrophages.
Intracellular amastigote studies. […] Because the amastigote stage is the only relevant clinical form of the parasites, we examined the activity of the nitrogenated xanthones against the heme-auxotrophic, intracellular amastigote form of L. mexicana. Stationary promastigotes of L. mexicana M379 rapidly invaded murine peritoneal macrophages obtained from BALB/c mice and incubated at 35° C. producing heavily burdened cells with 10 to 50 amastigotes per macrophage within 24 hours. An experiment was performed to investigate the ability of selected xanthones to reduce the number of intracellular amastigotes using this model. The IC50 value is that concentration of drug required to reduce the intracellular parasite burden by 50% relative to a drug-free control chamber. We tested the xanthone series against amastigote-infected murine peritoneal macrophages. Macrophages were seeded into Labtek chamber slides (25,000 per well/8 chamber slide) and allowed to incubate overnight in Dulbecco's Modified Eagle Medium (DMEM) supplemental with 10% fetal calf serum. On the next day the cells were infected with L. mexicana promastigotes at an MOI of 5:1 and then incubated for 24 hours at 35° C. After incubation, the monolayers were washed with buffer and medium containing varying concentrations of each xanthone (0 to 10 μM) was added to each chamber. After 48 hours of incubation (i.e., Day 3 of the experiment) one set of slides was removed, fixed with methanol, and stained with Giemsa. For another set of slides, we replenished the culture medium, added fresh drug to each well as appropriate, and then incubated the chambers for another 48 hours before staining with Giemsa. IC50 values were then averaged for 3 separate experiments and the results are presented in Table 4 and graphically in FIG. 7. […] The IC50 values recorded for C5 and C6 exposure for 96 hours of treatment were 6 nM and 2 nM.

Experiment [3] can be described thus: in vitro heme aggregation (polymerization) assay. Format: biochemical. On the procedure: Heme polymerization was carried out in 0.02 M phosphate buffer, pH 5.2 at 37° C. in the absence of protenis. A 10 mM stock solution of hemin chloride in 0.1 M NaOH wa prepared freshly and incuated at 37° C. for at least 1 hour to effect complete dissolution. Xanthones were dissolved in dimethylformamide at 10 mM and diluted into 10 ml of pre-warmed phosphate solution to a final concentraion of 25 μm. […] 25 μl of dimethylformaide wa added to the control smample. After 7, 30, 60, 120 and 190 minutes of incugation at 37° C., a 1 ml aliquot was withdraqwn, tranferred into an Eppendorf tube, and centrifugted at 14,000 g for 2 minutes at room temperature to pellet the precipitate. The soluble fraction was then transferred to a semi-microcuvette (polymethyacrylate, VER), and its absoprtion was measured at 360 nm against a blank of the test compound in buffer.
The reactions were allowed to proceed for 2 hours in a 37° C. waterbath. After incubation, the polymer was pelleted as described above and the absorption (360 nm) of each soluble fraction was measured against a blank containing the drug alone in buffer. The IC50 values were determined by nonlinear regression analysis of the dose-response curves of percent inhibition of heme polymerization vs. drug concentration.

Experiment [4] deals with Leishmania donovani. As to the kind of experiment: anti-Leishmania activity, promastigote radiolabeled thymidine uptake assay. Type of experiment: cell-based. As to the method:
Leishmania donovani was cultivated in Schneider's medium (Gibco, Grand Island, N.Y.) according to the methods described by Grogl et al. (1992). The in vitro susceptibility of L. donovani to Formula X1 compounds was determined using the radiolabeled thymidine uptake assay essentially as described by Grogl et al. (1992). Briefly, promastigotes were cultivated at 25° C. in Schneider's medium supplemented with 20% inactivated fetal calf serum and 100 μg/mL of gentamicin. Cells were maintained in log phase by seeding at 1×10^6/mL with subculturing when cultured densities approached 4×10^7/mL before reaching their maximal density. For the assay, early log phase promastigotes were counted on a hemacytometer and resuspended at a concentration of 1-2×10^6 cell/mL in assay media (Schneider's medium plus 10% fetal bovine serum). Ten-fold serial dilutions of each test compound were prepared as described above and added to 180 μL of the parasite suspension. After incubation for 24 hours at 25° C., methyl-^3H-thymidine was added to each sample for a final concentration of 1-2 μCi per well. Each sample was then incubated for an additional 18 hours prior to harvesting. After this incubation time, each sample was aspirated onto a filter mat, washed thoroughly with deionized water, dried and then counted in a scintillation counter with scintillation cocktail. […]

Experiment [5] concerns malaria Plasmodium parasites. As to conditions: rufigallol combined with exifone; cited from earlier work.
Experiment [6] has as its system Leishmania donovani. As to conditions: Table 2; literature reported value; cited from earlier work.
[7] abbreviates: intracellular amastigote method.
Where [8] appears, read: Table 1, reproduced from U.S. Pat. No. 5,977,077, read-out: IC50, μM vs. Plasmodium.

`O=c1c2ccc(O)c(O)c2oc2c(O)c(O)c(O)cc12` [2,3,4,5,6-pentahydroxyxanthone]: the IC50 with Candida albicans is about 10 µg/mL (≈ 36.2 µM); in experiment [1] (Table 3, read-out: IC50 μM, P. falciparum clone D6), 0.4 µM; in experiment [2], about 1 µg/mL; in experiment [2] (setting [7]) it was about 5 µM; in experiment [3] (Table 3, 25 μM heme, pH 5.2, 37° C., 2 hours, average of at least two determinations, read-out: IC50, μM in vitro heme polymerization), 1.2 µM; in experiment [3] (text b143, read-out: IC50, inhibition of heme polymerization), 1.2 µM.
As to `O=c1c2cc(O)c(O)cc2oc2cc(O)c([C@@H]3O[C@H](CO)[C@@H](O)[C@H](O)[C@H]3O)c(O)c12` [Mangiferin, reference compound], the IC50 in experiment [1] (setting [8]) is 50 µM; in the experiment on Leishmania donovani [4] (Table 2, read-out: IC50 mg/ml for Leishmania), over 0.05 mg/mL.
For `COc1c(O)cc2oc3cc(O)c(CC=C(C)C)c(O)c3c(=O)c2c1CC=C(C)C` [Mangostin, reference compound], the IC50 in experiment [1] (setting [8]) was 5 µM; in experiment [2], 0.41 µg/mL; in experiment [2] (setting [7]), 1 µM; with Leishmania donovani [4] (read-out: IC50 mg/ml for Leishmania), 0.00041 mg/mL (≈ 0.999 µM).
As for `O=C1c2cc(O)c(O)c(O)c2C(=O)c2cc(O)c(O)c(O)c21` [rufigallol, 1,2,3,5,6,7,-hexahydroxy-9,10-anthraquinone], the “increase in potency against malaria Plasmodium parasites” value in experiment [5] is reported as about 350 fold.
“Stibogluconate [Stibogluconate [Sodium Antimony (V) Gluconate]]”: in the experiment on Leishmania donovani [6], the “IC50 mg/ml for Leishmania” value is listed as 0.1 to 1.0 literature reported value mg/ml.
